Experimental data published in patent US20200181089A1, “4-ANILINO-QUINOLINE COMPOUNDS AS ANTI-CANCER AGENTS” (INSERM (INSTITUT NATIONAL DE LA SANTÉ ET DE LA RECHERCHE …, priority 2016, published 2020).
Like-named read-outs stand apart in the source and are kept apart here.

Columns and labels:
Format in all cases: cell-based
normal human fibroblast = assay: Fibroblast viability assay (trypan blue exclusion); details: 96 h
Description: (§1) Cell viability effects were evaluated by trypan blue exclusion assay. Briefly, cells were seeded into 12-well plate and grown in media supplemented with indicated compound at 10 μM for 96 h. Cells were washed with PBS and detached by trypsinization, collected and colored by trypan blue. Dead and living cells were counted and cell viability was calculated as follow: Viability (%)=100−[(dead cell number/total cells)*100].

A375 cells = assay: A375 cell proliferation assay (trypan blue exclusion); details: Homo sapiens, A-375, treated/untreated cell number; for activity at 1 µM: A375, 1 μM; for activity at 10 µM: A375, 10 μM
Description: Cells were counted using a Malassez chamber. The average and standard deviation were calculated from triplicate experiments. Antiproliferative effects were evaluated by trypan blue exclusion assay. Briefly, cells were seeded into 12-well plate and grown in media supplemented with indicated compound at 1 or 10 μM for 48 h or 96 h. Cells were washed with PBS and detached by trypsinization, collected and colored by trypan blue. Dead and living cells were counted and proliferation was calculated as follow: Proliferation (%)=[(treated cell number/untreated cells number)*100].

EZH2 transcription = assay: Ability to decrease EZH2 mRNA level in A375 (dose-response, quantitative PCR); details: Homo sapiens, A-375, 96 h; A375 cells, incubated 4 days; read-out: IC50 (concentration necessary to obtain 50% of EZH2 transcription activity)
Description: Typically, 30000-50000 cells were plated in six-well culture plates and incubated 24 h later with increasing concentration of NIK inhibitors or vehicle. Cells were incubated with the inhibitors for 4 days prior to harvesting for RNA extraction and PCR. Total RNA was isolated from cells using the RNAeasy minikit (Qiagen) according to the manufacturer's procedure. Reverse transcription was performed using the AMV reverse transcription system (Promega), and quantitative PCR was performed with Power Sybr green (Applied Biosystems, Life Technologies, Grand Island, N.Y.) following the manufacturer's instructions. The PCR was carried out on a Step One plus Real-Time PCR system (Applied Biosystems). All analyses were done in triplicate, and a melting curve analysis was performed to control for product quality and specificity. Expression levels were calculated using the comparative method of relative quantification, with SB34 as a normalizer. The data were analyzed for statistical significance using Student's t-test. The results are presented as the mean±SEM relative to the control. Primers were obtained from primer bank or primer depot (http://pga.mgh.harvard.edu/primerbank/, https://primerdepot.nci.nih.gov), and their specificity was verified using primer blast (http://www.ncbi.nlm.nih.gov/tools/primer-blast/).
Here IC50 represents the concentration necessary to obtain 50% of EZH2 transcription activity.

normal human melanocyte = assay: Melanocyte viability assay (trypan blue exclusion); details: 96 h
Description: as §1

[1] = 48 h, read-out: Proliferation (%) At 1 μM - 48 H
[2] = 96 h, read-out: Proliferation (%) At 1 μM - 96 H
[3] = 48 h, read-out: Proliferation (%) At 10 μM - 48 H
[4] = 96 h, read-out: Proliferation (%) At 10 μM - 96 H

Row | SMILES | Viability (%) at 10 μM Fibroblast (normal human fibroblast) | activity at 1 µM (A375 cells; [1]) | activity at 1 µM (A375 cells; [2]) | activity at 10 µM (A375 cells; [3]) | activity at 10 µM (A375 cells; [4]) | IC50 (EZH2 transcription) | Viability (%) at 10 μM Melanocyte (normal human melanocyte)
1 | Oc1ccc(Nc2ccnc3cc(Cl)ccc23)cc1Cl [Compound 8, 4-((4-hydroxy-3-chlorophenyl)amino)-7-chloroquinolinium chloride] | 98.6% | 81.3% | 74% | 82.1% | 67.5% | 15 µM | 98.0%
2 | COc1ccc(Nc2cc(N3CCN(C)CC3)nc3cc(Cl)ccc23)cc1 [Compound 31, 7-chloro-N-(4-methoxyphenyl)-2-(4-methylpiperazin-1-yl)quinolin-4-amine] | 29.6% | 106% | 83.3% | 37.6% | 3.39% | – | 33.1%
3 | Cc1ccc(Nc2ccnc3cc(Cl)ccc23)cc1 [Compound 2, 4-((4-methylphenyl)amino)-7-chloroquinolinium chloride] | – | – | – | – | – | 10 µM | –
4 | COc1ccc(Nc2ccnc3ccc(Cl)cc23)c(OC)c1 [Compound 37, 6-chloro-N-(2,4-dimethoxyphenyl)quinolin-4-amine] | 94.6% | 84% | 87.4% | 80.5% | 53% | – | 98.7%
5 | COc1ccc(Nc2cc(N3CCN(C)CC3)nc3cc(Cl)ccc23)cc1OC [Compound 29, 7-chloro-N-(3,4-dimethoxyphenyl)-2-(4-methylpiperazin-1-yl)quinolin-4-amine] | 41.6% | 89.6% | 87.6% | 67.2% | 4.8% | – | 91.2%
6 | COc1cc(Nc2ccc(OC)c(OC)c2)c2ccc(Cl)cc2n1 [Compound 33, 7-chloro-N-(3,4-dimethoxyphenyl)-2-methoxyquinolin-4-amine] | 97.7% | 106% | 97.2% | 102% | 95.2% | – | 60.1%
7 | COc1ccc(Nc2cc(N3CCOCC3)nc3cc(Cl)ccc23)cc1OC [Compound 28, 7-chloro-N-(3,4-dimethoxyphenyl)-2-morpholinoquinolin-4-amine] | 95.7% | 98.4% | 87.8% | 92% | 82.8% | – | 99.1%
8 | COc1ccc(Nc2cc(N3CCOCC3)nc3cc(Cl)ccc23)cc1 [Compound 30, 7-chloro-N-(4-methoxyphenyl)-2-morpholinoquinolin-4-amine] | 96.4% | 88% | 73.2% | 87.2% | 37% | – | 94.2%
9 | COc1ccc(Nc2ccnc3cc(Cl)ccc23)c(OC)c1 [Compound 39, 7-chloro-N-(2,4-dimethoxyphenyl)quinolin-4-amine] | 100.0% | 88.3% | 34.3% | 18.1% | 13.6% | – | 99.5%
10 | COc1ccc(Nc2ccnc3cc(Cl)ccc23)cc1OC [Compound 38, 7-chloro-N-(3,4-dimethoxyphenyl)quinolin-4-amine] | 93.3% | 90.8% | 46.9% | 33.5% | 15.7% | – | 99.2%
11 | FC(F)Oc1ccc(Nc2ccnc3cc(Cl)ccc23)cc1 [Compound 34, 7-chloro-N-(4-(difluoromethoxy)phenyl)quinolin-4-amine] | 98.3% | 96% | 98.6% | 77.6% | 37.9% | – | 98.7%
12 | COCCOc1cc(Nc2ccnc3cc(Cl)ccc23)ccc1OC [Compound 35, 7-chloro-N-(4-methoxy-3-(2-methoxyethoxy)phenyl)quinolin-4-amine] | 99.5% | 104% | 85.3% | 84.7% | 79.9% | – | 99.1%
13 | COc1ccc(Nc2cc(OCCN3CCOCC3)nc3cc(Cl)ccc23)cc1OC [Compound 32, 7-chloro-N-(3,4-dimethoxyphenyl)-2-(2-morpholinoethoxy)quinolin-4-amine] | 99.4% | 96% | 84.5% | 100% | 82.2% | – | 98.6%
14 | Oc1ccc(Nc2ccnc3cc(Cl)ccc23)cc1 [Compound 7, 4-((4-hydroxyphenyl)amino)-7-chloroquinolinium chloride] | 97.7% | 84.6% | 91.1% | 95.2% | 79.4% | – | 99.1%
15 | COc1cccc(Nc2ccnc3cc(Cl)ccc23)c1 [Compound 6, 4-((3-methoxyphenyl)amino)-7-chloroquinolinium chloride] | – | – | – | – | – | 15 µM | –
16 | Oc1ccc(Nc2ccc3c(Nc4cc(F)cc(F)c4)ccnc3c2)cc1Cl [Compound 19, 2-chloro-4-((4-((3,5-difluorophenyl)amino)quinolin-7-yl)amino)phenol] | – | 74.7% | 74.9% | 0.4% | 0% | – | –
17 | FC(F)(F)Oc1ccc(Nc2ccnc3ccc(Cl)cc23)cc1 [Compound 36, 6-chloro-N-(4-(trifluoromethoxy)phenyl)quinolin-4-amine] | 92.1% | 105% | 97.7% | 49.7% | 9.89% | – | 73.4%
18 | COc1cccc(Nc2ccc3c(Nc4cc(F)cc(F)c4)ccnc3c2)c1 [Compound 26, N^4-(3,5-difluorophenyl)-N^7-(3-methoxyphenyl)quinolin-4,7-diamine] | – | 54.9% | 9.9% | 0.4% | 0% | – | –
19 | COc1ccc(Nc2ccnc3cc(N4CCOCC4)ccc23)cc1 [Compound 13, N-(4-methoxyphenyl)-7-morpholinoquinolin-4-amine] | – | – | – | – | – | 15 µM | –
20 | COc1ccc(Nc2cc(OC)nc3cc(Cl)ccc23)cc1 [Compound 27, 7-chloro-2-methoxy-N-(4-methoxyphenyl)quinolin-4-amine] | 93.9% | 98.7% | 85.6% | 67.8% | 21.8% | – | 76.9%
